Measured values taken from patent US10597388B2, “Pyridazinone herbicides” (FMC CORPORATION, priority 2014, dated 2020).

Columns and labels:
Format in all cases: in vivo
[1] = system: crabgrass, large (large crabgrass, Digitaria sanguinalis); assay: Test C greenhouse herbicide test, pre- and postemergence
Outline: (§1)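 Greenhouse pots; pre-em on seeded loam:sand blend, post-em on 2–18 cm plants (1–4 leaf) in sphagnum peat/vermiculite medium. Formulation: non-phytotoxic solvent + surfactant. Read-out: visual % control (0–100) vs controls at 13–15 d.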

[2] = system: ragweed (common ragweed, Ambrosia elatior); assay: as above
Outline: as §1

[3] = system: morningglory (Ipomoea coccinea); assay: as above
Outline: as §1

[4] = system: foxtail, giant (giant foxtail, Setaria faberii); assay: as above
Outline: as §1

[5] = system: oilseed rape (Brassica napus); assay: as above
Outline: as §1

[6] = system: johnsongrass (Sorghum halepense); assay: as above
Outline: as §1

[7] = system: barnyardgrass (Echinochloa crus-galli); assay: as above
Outline: as §1

[8] = system: ryegrass, Italian (Italian ryegrass, Lolium multiflorum); assay: as above
Outline: as §1

[9] = system: wheat (winter wheat, Triticum aestivum); assay: as above
Outline: as §1

[10] = system: galium (catchweed bedstraw, Galium aparine); assay: as above
Outline: as §1

[11] = system: lambsquarters (Chenopodium album); assay: as above
Outline: as §1

[12] = system: blackgrass (Alopecurus myosuroides); assay: Test A greenhouse herbicide test, postemergence
Outline: (§2)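 Scores are visual injury ratings from 0 (no effect) to 100 (complete control) versus untreated plants, taken roughly 10 d after treatment in the greenhouse. Treatment was postemergence, on one- to two-leaf plants 2–10 cm high growing in a loam soil/sand mix.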

[13] = system: galium (catchweed bedstraw, Galium aparine); assay: Test A greenhouse herbicide test, postemergence
Outline: as §2

[14] = Postemergence, 31 g ai/ha, 0 to 100 scale (0 no effect, 100 complete control)
[15] = Postemergence, 125 g ai/ha, scale 0 to 100, 0 is no effect, 100 is complete control
[16] = Postemergence, 250 g ai/ha, scale 0 to 100, 0 no effect, 100 complete control, 13 to 15 d
[17] = Preemergence, 31 g ai/ha, scale 0 to 100, 0 is no effect, 100 is complete control
[18] = Preemergence, 62 g ai/ha, scale 0 to 100, 0 is no effect, 100 is complete control
[19] = Preemergence, 125 g ai/ha, scale 0 to 100, 0 is no effect, 100 is complete control
[20] = Preemergence, 250 g ai/ha, scale 0 to 100, 0 no effect, 100 complete control
[21] = postemergence, 62 g ai/ha, scale 0 to 100, 0 no effect, 100 complete control
[22] = 125 g ai/ha, 0 to 100 scale where 0 is no effect and 100 is complete control
[23] = 500 g ai/ha, 0 to 100 scale, 0 is no effect, 100 is complete control

Cc1ccc2sc(C)c(-c3c(OC(=O)OC(C)C)c(C)nn(C)c3=O)c2c1 [Compound 66]
15: Plant response rating, Johnsongrass [6, 16] | Barnyardgrass plant response rating [7, 14]
20: Plant response rating, Barnyardgrass [7, 18] | Barnyardgrass plant response rating [7, 21]
80: Plant response rating, Morningglory [3, 17] | Plant response rating, Morningglory [3, 19] | Plant response rating, Foxtail, Giant [4, 16] | Plant response rating, Foxtail, Giant [4, 19] | Plant response rating, Ryegrass, Italian [8, 19] | Ryegrass, Italian plant response rating [8, 21] | Plant response rating, Lambsquarters [11, 17] | Blackgrass plant response rating [12, 23]
5: Oilseed Rape plant response rating [5, 20] | Johnsongrass plant response rating [6, 14] | Plant response rating, Johnsongrass [6, 15] | Johnsongrass plant response rating [6, 21]
65: Plant response rating, Crabgrass, Large [1, 18] | Plant response rating, Foxtail, Giant [4, 15] | Johnsongrass plant response rating [6, 20]
75: Plant response rating, Crabgrass, Large [1, 17] | Plant response rating, Crabgrass, Large [1, 19] | Plant response rating, Ragweed [2, 17] | Plant response rating, Foxtail, Giant [4, 18]
90: Plant response rating, Ragweed [2, 15] | Plant response rating, Ragweed [2, 19] | Morningglory plant response rating [3, 14] | Morningglory plant response rating [3, 20] | Ryegrass, Italian plant response rating [8, 20] | Galium plant response rating [10, 14] | Plant response rating, Galium [10, 17] | Plant response rating, Galium [10, 18] | Lambsquarters plant response rating [11, 14] | Plant response rating, Galium [13, 22] | Galium plant response rating [13, 23]
50: Plant response rating, Ryegrass, Italian [8, 18]
100: Plant response rating, Ragweed [2, 16] | Plant response rating, Morningglory [3, 15] | Plant response rating, Morningglory [3, 16] | Plant response rating, Lambsquarters [11, 15] | Plant response rating, Lambsquarters [11, 16] | Lambsquarters plant response rating [11, 21]
10: Plant response rating, Oilseed Rape [5, 15] | Oilseed Rape plant response rating [5, 21] | Plant response rating, Johnsongrass [6, 17]
70: Plant response rating, Foxtail, Giant [4, 17] | Barnyardgrass plant response rating [7, 20]
30: Crabgrass, Large plant response rating [1, 21] | Plant response rating, Barnyardgrass [7, 15]
60: Ryegrass, Italian plant response rating [8, 14] | Plant response rating, Blackgrass [12, 22]
40: Foxtail, Giant plant response rating [4, 14] | Plant response rating, Barnyardgrass [7, 19] | Wheat plant response rating [9, 20]
55: Foxtail, Giant plant response rating [4, 21] | Plant response rating, Johnsongrass [6, 19] | Plant response rating, Ryegrass, Italian [8, 17]
25: Crabgrass, Large plant response rating [1, 14] | Plant response rating, Johnsongrass [6, 18]
98: Galium plant response rating [10, 20] | Lambsquarters plant response rating [11, 20]
0: Oilseed Rape plant response rating [5, 14] | Plant response rating, Oilseed Rape [5, 16] | Plant response rating, Oilseed Rape [5, 17] | Plant response rating, Oilseed Rape [5, 18] | Plant response rating, Oilseed Rape [5, 19] | Plant response rating, Barnyardgrass [7, 17] | Wheat plant response rating [9, 14] | Plant response rating, Wheat [9, 15] | Plant response rating, Wheat [9, 16] | Plant response rating, Wheat [9, 17] | Plant response rating, Wheat [9, 18] | Plant response rating, Wheat [9, 19] | Wheat plant response rating [9, 21]
45: Plant response rating, Crabgrass, Large [1, 16]
95: Ragweed plant response rating [2, 20] | Morningglory plant response rating [3, 21] | Plant response rating, Galium [10, 15] | Plant response rating, Galium [10, 16] | Plant response rating, Galium [10, 19] | Galium plant response rating [10, 21]
35: Plant response rating, Crabgrass, Large [1, 15] | Plant response rating, Barnyardgrass [7, 16]
85: Crabgrass, Large plant response rating [1, 20] | Ragweed plant response rating [2, 14] | Plant response rating, Ragweed [2, 18] | Ragweed plant response rating [2, 21] | Plant response rating, Morningglory [3, 18] | Foxtail, Giant plant response rating [4, 20] | Plant response rating, Ryegrass, Italian [8, 15] | Plant response rating, Ryegrass, Italian [8, 16] | Plant response rating, Lambsquarters [11, 18] | Plant response rating, Lambsquarters [11, 19]
